# Test results reported in patent publication US8304419B2, “Chemical compounds” (priority 2007, dated 2012).
# pIC50: −log10 of the molar value. Counter-ions that a name gives are not always drawn.
# Tested on: HIV wild type (WTRVA)
# Assay: HeLa cell assay, wild type virus (WTRVA)
# Assay type: cell-based, HIV-1
# Design: scale not given here
# Details: Human immunodeficiency virus 1, HeLa, HeLa cell assay; read-out: IC50 against WTRVA
row,Structure (SMILES),pIC50
1,"CNc1nc(Cl)c(C(=O)NCc2ccc(Cl)c(Oc3cc(Cl)cc(C#N)c3)c2F)[nH]1 [Example 363, 4-chloro-N-({4-chloro-3-[(3-chloro-5-cyanophenyl)oxy]-2-fluorophenyl}methyl)-2-(methylamino)-1H-imidazole-5-carboxamide trifluoroacetate]",> 8.00
2,"N#Cc1cc(Cl)cc(Oc2c(Br)ccc(CNC(=O)c3[nH]c(N)nc3Br)c2F)c1 [Example 237, 2-amino-4-bromo-N-({4-bromo-3-[(3-chloro-5-cyanophenyl)oxy]-2-fluorophenyl}methyl)-1H-imidazole-5-carboxamide trifluoroacetate]",> 8.00
3,"N#Cc1cc(Cl)cc(Oc2c(Cl)ccc(CNC(=O)c3[nH]c(N)nc3Br)c2F)c1 [Example 235, 2-amino-4-bromo-N-({4-chloro-3-[(3-chloro-5-cyanophenyl)oxy]-2-fluorophenyl}methyl)-1H-imidazole-5-carboxamide trifluoroacetate]",> 8.00
4,"N#Cc1cc(Cl)cc(Oc2c(Cl)ccc(CNC(=O)c3[nH]ccc3Cl)c2F)c1 [Example 128, 3-chloro-N-({4-chloro-3-[(3-chloro-5-cyanophenyl)oxy]-2-fluorophenyl}methyl)-1H-pyrrole-2-carboxamide]",> 8.00
5,"Cc1cc(C#N)cc(Oc2c(Cl)ccc(CNC(=O)c3[nH]c(C)nc3Br)c2F)c1 [Example 146, 4-bromo-N-({4-chloro-3-[(3-cyano-5-methylphenyl)oxy]-2-fluorophenyl}methyl)-2-methyl-1H-imidazole-5-carboxamide]",> 8.00
6,"Cc1nc(Cl)c(C(=O)NCc2ccc(Cl)c(Oc3cc(Cl)cc(C#N)c3Cl)c2F)[nH]1 [Example 306, 4-chloro-N-({4-chloro-3-[(2,5-dichloro-3-cyanophenyl)oxy]-2-fluorophenyl}methyl)-2-methyl-1H-imidazole-5-carboxamide trifluoroacetate]",> 8.00
7,"N#Cc1cc(Oc2c(Cl)ccc(CNC(=O)c3[nH]c(N)nc3Cl)c2F)cc(C2CC2)c1 [Example 307, 2-amino-4-chloro-N-({4-chloro-3-[(3-cyano-5-cyclopropylphenyl)oxy]-2-fluorophenyl}methyl)-1H-imidazole-5-carboxamide trifluoroacetate]",> 8.00
8,"N#Cc1cc(Oc2c(Cl)ccc(CNC(=O)c3[nH]cnc3Br)c2F)cc(C(F)F)c1 [Example 375, 4-bromo-N-[(4-chloro-3-{[3-cyano-5-(difluoromethyl)phenyl]oxy}-2-fluorophenyl)methyl]-1H-imidazole-5-carboxamide]",> 8.00
9,"N#Cc1cc(Cl)cc(Oc2c(Br)ccc(CNC(=O)c3nc(N)[nH]c3Cl)c2F)c1 [Example 239, 2-amino-N-({4-bromo-3-[(3-chloro-5-cyanophenyl)oxy]-2-fluorophenyl}methyl)-4-chloro-1H-imidazole-5-carboxamide]",> 8.00
10,"COc1cc(C#N)cc(Oc2c(Cl)ccc(CNC(=O)c3[nH]c(N)nc3Cl)c2F)c1 [Example 366, 2-amino-4-chloro-N-[(4-chloro-3-{[3-cyano-5-(methyloxy)phenyl]oxy}-2-fluorophenyl)methyl]-1H-imidazole-5-carboxamide trifluoroacetate]",> 8.00
11,"N#Cc1cc(Cl)cc(Oc2c(Cl)ccc(Cn3cnc4cc[nH]c4c3=O)c2F)c1 [Example 369, 3-chloro-5-({6-chloro-2-fluoro-3-[(4-oxo-4,5-dihydro-3H-pyrrolo[3,2-d]pyrimidin-3-yl)methyl]phenyl}oxy)benzonitrile]",> 8.00
12,"N#Cc1cc(Cl)cc(Oc2c(Br)ccc(CNC(=O)c3[nH]c(CO)nc3Cl)c2F)c1 [Example 241, N-({4-bromo-3-[(3-chloro-5-cyanophenyl)oxy]-2-fluorophenyl}methyl)-4-chloro-2-(hydroxymethyl)-1H-imidazole-5-carboxamide]",> 8.00

# Same assay, conditions: Human immunodeficiency virus 1, HeLa, HeLa-CD4-LTR-β-gal cells, wild type virus; read-out: WTRVA activity level
row,Structure (SMILES),pIC50
1,"Cn1ccnc1C(=O)NCc1ccc(Cl)c(Oc2cc(Cl)cc(C#N)c2)c1F [Example 72, N-({4-chloro-3-[(3-chloro-5-cyanophenyl)oxy]-2-fluorophenyl}methyl)-1-methyl-1H-imidazole-2-carboxamide trifluoroacetate]",6.00 to 8.00
2,"N#Cc1cc(Cl)cc(Oc2c(Cl)ccc(CNC(=O)c3ccc(S(N)(=O)=O)cc3Cl)c2F)c1 [Example 14, 4-(aminosulfonyl)-2-chloro-N-({4-chloro-3-[(3-chloro-5-cyanophenyl)oxy]-2-fluorophenyl}methyl)benzamide]",6.00 to 8.00
3,"COc1ccc(C(=O)NCc2ccc(Cl)c(Oc3cc(Cl)cc(C#N)c3)c2F)c(C)c1 [Example 17, N-({4-chloro-3-[(3-chloro-5-cyanophenyl)oxy]-2-fluorophenyl}methyl)-2-methyl-4-(methyloxy)benzamide]",6.00 to 8.00
4,"N#Cc1cc(Cl)cc(Oc2cc(CNC(=O)c3ccc(Cl)c(S(N)(=O)=O)c3)ccc2Cl)c1 [Example 5, 3-(aminosulfonyl)-4-chloro-N-({4-chloro-3-[(3-chloro-5-cyanophenyl)oxy]phenyl}methyl)benzamide trifluoroacetate]",6.00 to 8.00
5,"N#Cc1cc(Cl)cc(Oc2c(Cl)ccc(CNC(=O)c3ccc[nH]3)c2F)c1 [Example 57, N-({4-chloro-3-[(3-chloro-5-cyanophenyl)oxy]-2-fluorophenyl}methyl)-1H-pyrrole-2-carboxamide]",> 8.00
6,"CCc1c(C(=O)NCc2ccc(Cl)c(Oc3cc(Cl)cc(C#N)c3)c2F)[nH]c2ccc(OC)cc12 [Example 81, N-({4-chloro-3-[(3-chloro-5-cyanophenyl)oxy]-2-fluorophenyl}methyl)-3-ethyl-5-(methyloxy)-1H-indole-2-carboxamide trifluoroacetate]",6.00 to 8.00
7,"N#Cc1cc(Cl)cc(Oc2c(Cl)ccc(CNC(=O)c3cc4ccc(C#N)cc4[nH]3)c2F)c1 [Example 79, N-({4-chloro-3-[(3-chloro-5-cyanophenyl)oxy]-2-fluorophenyl}methyl)-6-cyano-1H-indole-2-carboxamide trifluoroacetate]",> 8.00
8,"N#Cc1cc(Cl)cc(Oc2c(Cl)ccc(CNC(=O)c3ccno3)c2F)c1 [Example 93, N-({4-chloro-3-[(3-chloro-5-cyanophenyl)oxy]-2-fluorophenyl}methyl)-5-isoxazolecarboxamide]",6.00 to 8.00
9,"N#Cc1cc(Cl)cc(Oc2c(Cl)ccc(CNC(=O)c3cc4cccc(N)c4[nH]3)c2F)c1 [Example 113, 7-amino-N-({4-chloro-3-[(3-chloro-5-cyanophenyl)oxy]-2-fluorophenyl}methyl)-1H-indole-2-carboxamide]",> 8.00
10,"N#Cc1cc(Cl)cc(Oc2c(Cl)ccc(CNC(=O)c3[nH]ccc3Cl)c2F)c1 [Example 128, 3-chloro-N-({4-chloro-3-[(3-chloro-5-cyanophenyl)oxy]-2-fluorophenyl}methyl)-1H-pyrrole-2-carboxamide]",> 8.00
11,"N#Cc1cc(Cl)cc(Oc2c(Cl)ccc(CNC(=O)c3cc4cc(NC(=O)c5ccncc5)ccc4[nH]3)c2F)c1 [Example 114, N-({4-chloro-3-[(3-chloro-5-cyanophenyl)oxy]-2-fluorophenyl}methyl)-5-[(4-pyridinylcarbonyl)amino]-1H-indole-2-carboxamide]",> 8.00
12,"N#Cc1cc(Cl)cc(Oc2c(Cl)ccc(CNC(=O)c3nc4ccc([N+](=O)[O-])cc4[nH]3)c2F)c1 [Example 124, N-({4-chloro-3-[(3-chloro-5-cyanophenyl)oxy]-2-fluorophenyl}methyl)-5-nitro-1H-benzimidazole-2-carboxamide]",6.00 to 8.00
13,"N#Cc1cc(Cl)cc(Oc2c(Cl)ccc(CNC(=O)c3cc4ccc(O)cc4[nH]3)c2F)c1 [Example 36, N-({4-chloro-3-[(3-chloro-5-cyanophenyl)oxy]-2-fluorophenyl}methyl)-6-hydroxy-1H-indole-2-carboxamide]",> 8.00
14,"N#Cc1cc(Cl)cc(Oc2c(Cl)ccc(CNC(=O)c3nc4ccccc4[nH]3)c2F)c1 [Example 35, N-({4-chloro-3-[(3-chloro-5-cyanophenyl)oxy]-2-fluorophenyl}methyl)-1H-benzimidazole-2-carboxamide]",> 8.00
15,"COc1ccc2cc(C(=O)NCc3ccc(Cl)c(Oc4cc(Cl)cc(C#N)c4)c3)[nH]c2c1 [Example 7, N-({4-chloro-3-[(3-chloro-5-cyanophenyl)oxy]phenyl}methyl)-6-(methyloxy)-1H-indole-2-carboxamide]",6.00 to 8.00
16,"Cc1c(C(=O)NCc2ccc(Cl)c(Oc3cc(Cl)cc(C#N)c3)c2F)[nH]c2ccc(Cl)cc12 [Example 40, 5-chloro-N-({4-chloro-3-[(3-chloro-5-cyanophenyl)oxy]-2-fluorophenyl}methyl)-3-methyl-1H-indole-2-carboxamide]",6.00 to 8.00
17,"CC(=O)Nc1ccc2cc(C(=O)NCc3ccc(Cl)c(Oc4cc(Cl)cc(C#N)c4)c3F)[nH]c2c1 [Example 122, 6-(acetylamino)-N-({4-chloro-3-[(3-chloro-5-cyanophenyl)oxy]-2-fluorophenyl}methyl)-1H-indole-2-carboxamide]",> 8.00
18,"N#Cc1cc(Cl)cc(Oc2c(Cl)ccc(CNC(=O)c3csc(-c4cccnc4)n3)c2F)c1 [Example 98, N-({4-chloro-3-[(3-chloro-5-cyanophenyl)oxy]-2-fluorophenyl}methyl)-2-(3-pyridinyl)-1,3-thiazole-4-carboxamide trifluoroacetate]",> 8.00
19,"COC(=O)c1ccc(C(=O)NCc2ccc(Cl)c(Oc3cc(Cl)cc(C#N)c3)c2)cc1 [Example 11, Methyl 4-{[({4-chloro-3-[(3-chloro-5-cyanophenyl)oxy]phenyl}methyl)amino]carbonyl}benzoate]",< 6.00
20,"N#Cc1cc(Cl)cc(Oc2c(Cl)ccc(CNC(=O)c3cnccn3)c2F)c1 [Example 87, N-({4-chloro-3-[(3-chloro-5-cyanophenyl)oxy]-2-fluorophenyl}methyl)-2-pyrazinecarboxamide trifluoroacetate]",> 8.00
21,"N#Cc1cc(Cl)cc(Oc2c(Cl)ccc(CNC(=O)c3[nH]c4cc(O)ccc4c3Br)c2F)c1 [Example 61, 3-bromo-N-({4-chloro-3-[(3-chloro-5-cyanophenyl)oxy]-2-fluorophenyl}methyl)-6-hydroxy-1H-indole-2-carboxamide trifluoroacetate]",> 8.00
22,"N#Cc1cc(Cl)cc(Oc2c(Cl)ccc(CNC(=O)c3cc4cc(OCC[C@H](O)CO)ccc4[nH]3)c2F)c1 [Example 107, N-({4-chloro-3-[(3-chloro-5-cyanophenyl)oxy]-2-fluorophenyl}methyl)-5-{[(3S)-3,4-dihydroxybutyl]oxy}-1H-indole-2-carboxamide]",> 8.00
